Data: paper PMC8015227, “Understanding the Metabolism of Proteolysis Targeting Chimeras (PROTACs): The Next Step toward Pharmaceutical Applications” (Journal of Medicinal Chemistry, 2020)
Like-named read-outs stand apart in the source and are kept apart here.

Legend:
[1] = Metabolic stability in cryopreserved human hepatocytes; type: in vitro ADME; settings: human
Experimental: (§1) Cryopreserved human hepatocytes (pooled suspension hepatocytes, Gibco) were thawed placing in a 37 °C shaking water bath according to the manufacturer’s specifications and resuspended in Williams E medium (WEM) to have 1 × 10^6 cells/mL. Samples with the test compound at 1 μM were incubated at 37 °C, and aliquots of 50 μL were collected at 0, 10, 30, 60, 120, and 240 min. The incubations were quenched 1:3 with ice-cold acetonitrile (containing 1 μM labetalol as the internal standard). Samples were then centrifuged at 12000 rpm for 5 min at 4 °C. The supernatant was concentrated by evaporation under a nitrogen stream and reconstituted with DMSO. Blank was prepared similarly but in the absence of the investigated compounds.
(§2) A Thermo Q-exactive mass spectrometer (Thermo Fisher Scientific, Waltham, MA) was used. The LC system, governed by Chromeleon X-press software, consists of a Binary pump, a thermostated autosampler, and a column compartment, all Dionex Ultimate 3000 series modules (Thermo Fisher Scientific, Waltham, MA). A volume of 2 μL was injected for each sample. Chromatographic separation of analytes was conducted in reverse-phase chromatography. In brief, a Luna Omega 1.6 μm Polar (C18, 2.1 mm × 150 mm) was used, and the mobile phases consisted of water (A) and acetonitrile (B), both containing formic acid at 0.1%. The LC flow was set at 0.400 mL/min in a 12 min gradient elution as follows: 99.5:0.5 (A/B) to 5:95 (A/B) over 10 min, 5:95 (A/B) for 2 min, and then reversion back to 99.5:0.5 (A/B) over 2.5 min. The column was operating at a constant temperature of 40 °C.

[2] = test system: cryopreserved human hepatocytes; assay: as above; type: in vitro ADME; settings: for substrate left: cryopreserved human hepatocytes, end of incubation (240 min)
Experimental: as §1, §2

[3] = cryopreserved human hepatocytes (pooled, suspension), Figures 3-5, cryopreserved human hepatocytes, read-out: half-life (t1/2)
[4] = cryopreserved human hepatocytes (pooled, suspension), Table S1, PROTACs, cryopreserved human hepatocytes, read-out: t1/2
[5] = cryopreserved human hepatocytes (pooled, suspension), supplement CSV, human hepatocytes, read-out: HLH t1/2
[6] = supplement CSV, in brackets, final time point 240 min
[7] = cryopreserved human hepatocytes (pooled, suspension), Table 2, cryopreserved human hepatocytes, read-out: t1/2
[8] = Table 2, biotransformations observed in cryopreserved human hepatocytes
[9] = cryopreserved human hepatocytes (pooled, suspension), Table 1, incubation in cryopreserved human hepatocytes, 1 μM, up to 240 min, read-out: t1/2
[10] = cryopreserved human hepatocytes (pooled, suspension), Table S2, free ligands, cryopreserved human hepatocytes, read-out: t1/2
[11] = Table 1, biotransformations observed in cryopreserved human hepatocytes

| SMILES | half-life at 1 µM [1, 3] [min] | half-life at 1 µM [1, 4] [min] | half-life at 1 µM [1, 5] [min] | further results |
| --- | --- | --- | --- | --- |
| Cc1ncsc1-c1ccc([C@H](C)NC(=O)[C@@H]2C[C@@H](O)CN2C(=O)[C@@H](NC(=O)CCN2CCN(C(=O)C[C@@H]3N=C(c4ccc(Cl)cc4)c4c(sc(C)c4C)-n4c(C)nnc43)CC2)C(C)(C)C)cc1 [Compound 11, (2S,4R)-1-((S)-2-(3-(4-(2-((S)-4-(4-Chlorophenyl)-2,3,9-trimethyl-6H-thieno[3,2-f][1,2,4]triazolo[4,3-a][1,4]diazepin-6-yl)acetyl)piperazin-1-yl)propanamido)-3,3-dimethylbutanoyl)-4-hydroxy-N-((S)-1-(4-(4-methylthiazol-5-yl)phenyl)ethyl)pyrrolidine-2-carboxamide] | > 240 | > 240 | > 240 | HLH percentage of substrate left at the final time point of analysis [2, 6]: 70.0% |
| Cc1ncsc1-c1ccc([C@H](C)NC(=O)[C@@H]2C[C@@H](O)CN2C(=O)[C@@H](NC(=O)CCCCn2cc(CCCC(=O)N3CCN(C(=O)c4cc(Cc5n[nH]c(=O)c6ccccc56)ccc4F)CC3)nn2)C(C)(C)C)cc1 [Compound 25, (2S,4R)-1-((S)-2-(5-(4-(4-(4-(2-Fluoro-5-((4-oxo-3,4-dihydrophthalazin-1-yl)methyl)benzoyl)piperazin-1-yl)-4-oxobutyl)-1H-1,2,3-triazol-1-yl)pentanamido)-3,3-dimethylbutanoyl)-4-hydroxy-N-((S)-1-(4-(4-methylthiazol-5-yl)phenyl)ethyl)pyrrolidine-2-carboxamide] | > 240 | > 240 | > 240 | substrate left [2]: about 84%; HLH percentage of substrate left at the final time point of analysis [2, 6]: 84.7% |
| Cc1sc2c(c1C)C(c1ccc(Cl)cc1)=N[C@@H](CC(=O)O)c1nnc(C)n1-2 [Compound 43, (+)-JQ1, reference compound] |  |  |  | half-life at 1 µM ([1]; hepatocytes, HLH t1/2 (min)): > 240 min; half-life at 1 µM ([1]; hepatocytes, t1/2 (min)): > 240 min; Reaction (soft spots) [2]: a. Aliphatic-hydroxylation; HLH percentage of substrate left at the final time point of analysis ([2]; human, 240 min, 1 µM): 100.0% |
| Cc1ncsc1-c1ccc([C@H](C)NC(=O)[C@@H]2C[C@@H](O)CN2C(=O)[C@@H](NC(=O)CCCCn2cc(CN3CCN(C(=O)c4cc(Cc5n[nH]c(=O)c6ccccc56)ccc4F)CC3)nn2)C(C)(C)C)cc1 [Compound 24, (2S,4R)-1-((S)-2-(5-(4-((4-(2-Fluoro-5-((4-oxo-3,4-dihydrophthalazin-1-yl)methyl)benzoyl)piperazin-1-yl)methyl)-1H-1,2,3-triazol-1-yl)pentanamido)-3,3-dimethylbutanoyl)-4-hydroxy-N-((S)-1-(4-(4-methylthiazol-5-yl)phenyl)ethyl)pyrrolidine-2-carboxamide] | > 240 | > 240 | > 240 | substrate left [2]: about 84%; HLH percentage of substrate left at the final time point of analysis [2, 6]: 84.3% |
| O=C(COc1cccc2c1C(=O)N(C1CCC(=O)NC1=O)C2=O)NCCOCCOCCNC(=O)COc1c(-c2csc(N3CCOCC3)n2)ccc(F)c1F (stereo not drawn) [Compound 27, 2-(2,3-Difluoro-6-(2-morpholinothiazol-4-yl)phenoxy)-N-(2-(2-(2-(2-((2-(2,6-dioxopiperidin-3-yl)-1,3-dioxoisoindolin-4-yl)oxy)acetamido)ethoxy)ethoxy)ethyl)acetamide] |  | 39.4 | 39.4 | half-life at 1 µM [1, 7]: 39.4 min; Reaction (soft spots) [2, 8]: a. Amide hydrolysis b. O-dealkylation (x3) c. Aliphatic-hydroxylation |
| O=C(COc1c(-c2csc(N3CCOCC3)n2)ccc(F)c1F)NCCCCCCCCNc1cccc2c1C(=O)N(C1CCC(=O)NC1=O)C2=O (stereo not drawn) [Compound 30, 2-(2,3-Difluoro-6-(2-morpholinothiazol-4-yl)phenoxy)-N-(8-((2-(2,6-dioxopiperidin-3-yl)-1,3-dioxoisoindolin-4-yl)amino)octyl)acetamide] |  | 47.6 | 47.6 | half-life at 1 µM [1, 7]: 47.6 min; Reaction (soft spots) [2, 8]: a. Amide hydrolysis b. N-dealkylation c. O-dealkylation d. Aliphatic-hydroxylation |
| Cc1ncsc1-c1ccc([C@H](C)NC(=O)[C@@H]2C[C@@H](O)CN2C(=O)[C@@H](N)C(C)(C)C)cc1 [Compound 42, reference compound] |  |  | 92 | half-life at 1 µM [1, 9]: 92 min; half-life at 1 µM [1, 10]: 92 min; Reaction (soft spots) [2, 11]: a. N-dealkylation b. Aromatic hydroxylation c. Aliphatic-hydroxylation d. Aliphatic-carbonylation |
| Cc1sc2c(c1C)C(c1ccc(Cl)cc1)=N[C@@H](CC(=O)NCCCCCCCCNc1cccc3c1C(=O)N(C1CCC(=O)NC1=O)C3=O)c1nnc(C)n1-2 (stereo partly drawn) [Compound 4, 2-((S)-4-(4-Chlorophenyl)-2,3,9-trimethyl-6H-thieno[3,2-f][1,2,4]triazolo[4,3-a][1,4]diazepin-6-yl)-N-(8-((2-(2,6-dioxopiperidin-3-yl)-1,3-dioxoisoindolin-4-yl)amino)octyl)acetamide] |  | 55.1 | 55.1 | half-life at 1 µM [1, 9]: 55.1 min; Reaction (soft spots) [2, 11]: a. N-dealkylation (x2) b. Aliphatic-hydroxylation c. Dehydrogenation* |
| Cl.O=C(c1cc(Cc2n[nH]c(=O)c3ccccc23)ccc1F)N1CCNCC1 [Compound 45, reference compound] |  |  | > 240 | half-life at 1 µM [1, 10]: > 240 min; HLH percentage of substrate left at the final time point of analysis [2, 6]: 77.7% |
| Oc1c(-c2csc(N3CCOCC3)n2)ccc(F)c1F [Compound 46, reference compound] | < 20 |  | 18.3 | half-life at 1 µM [1, 9]: 18.3 min; half-life at 1 µM [1, 10]: 18.3 min; Reaction (soft spots) [2, 11]: a. O-dealkylation b.Glucuronidation c. Aliphatic hydroxylation |
| Cc1ncsc1-c1ccc([C@H](C)NC(=O)[C@@H]2C[C@@H](O)CN2C(=O)[C@@H](NC(=O)COCCOCCNC(=O)COc2c(-c3csc(N4CCOCC4)n3)ccc(F)c2F)C(C)(C)C)cc1 [Compound 37] |  | 37.6 | 37.6 | half-life at 1 µM [1, 9]: 37.6 min; Reaction (soft spots) [2, 11]: a. O-dealkylation (x5) b. Amide Hydrolysis (x2) c. Glucuronidation d. Dehydrogenation |
| Cc1sc2c(c1C)C(c1ccc(Cl)cc1)=N[C@@H](CC(=O)NCCCCCCCCNC(=O)COc1cccc3c1C(=O)N(C1CCC(=O)NC1=O)C3=O)c1nnc(C)n1-2 (stereo partly drawn) [Compound 2, dBet6, reference compound] | 18.2 | 18.2 | 18.2 |  |
| Cc1ncsc1-c1ccc([C@H](C)NC(=O)[C@@H]2C[C@@H](O)CN2C(=O)[C@@H](NC(=O)CCCCNC(=O)c2ccc3c(c2)nc(Nc2cccc(Cl)c2)c2ccncc23)C(C)(C)C)cc1 [Compound 17, 5-((3-Chlorophenyl)amino)-N-(5-(((S)-1-((2S,4R)-4-hydroxy-2-(((S)-1-(4-(4-methylthiazol-5-yl)phenyl)ethyl)carbamoyl)pyrrolidin-1-yl)-3,3-dimethyl-1-oxobutan-2-yl)amino)-5-oxopentyl)benzo[c][2,6]naphthyridine-8-carboxamide] | 204 | 204 | 204 |  |
| O=C1CCC(N2C(=O)c3cccc(NCCCCCCCCCCC(=O)N4CCN(C(=O)c5cc(Cc6n[nH]c(=O)c7ccccc67)ccc5F)CC4)c3C2=O)C(=O)N1 (stereo not drawn) [Compound 21, 2-(2,6-Dioxopiperidin-3-yl)-4-((11-(4-(2-fluoro-5-((4-oxo-3,4-dihydrophthalazin-1-yl)methyl)benzoyl)piperazin-1-yl)-11-oxoundecyl)amino)isoindoline-1,3-dione] |  | 15.7 | 15.7 |  |
